Data as given in patent US7851637B2, “Compounds and methods for inhibiting the interaction of BCL proteins with binding partners” (Infinity Pharmaceuticals, Inc., priority 2004, dated 2010).
Where two headings read alike, the source gives them in different places.

How the values were obtained:
Bcl-2 = Bcl-2 (Homo sapiens, UniProt P10415); assay: Bcl-2 binding affinity analysis (fluorescence polarization binding assay)
Outline: (§1)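 FP readout; quantitative in vitro binding format; same method applied to both anti-apoptotic proteins.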

Bcl-xL = Bcl-xL (Homo sapiens, UniProt Q07817); assay: Bcl-xL binding affinity analysis (fluorescence polarization binding assay); parameters: scale not given here
Outline: as §1

[1] = tested on: RL Human Follicular Lymphoma Cell Line; assay: Alamar blue cytotoxicity assay in RL cells; assay type: cell-based; settings: 72 h incubation, read-out: Bcl RL Alamar Blue IC50
Outline: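 Compounds tested at 29 uM to 0.013 uM final (0.3% DMSO) on 30,000 RL cells per well. After 72 h at 37 C, 5% CO2, viability read with Alamar blue.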

[2] = tested on: Human Pancreatic Cancer Cell Line Panc1; assay: Cell death assay (propidium iodide/Hoechst) in Panc1 cells with or without camptothecin; assay type: cell-based; settings: 72 hours, % cell death by propidium iodide/Hoechst
Outline: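 Panc1 cells, 10,000/well, exposed 72 h at 37 C to compound (29 uM to 0.13 uM, 0.3% DMSO) with or without 3 uM camptothecin. Propidium iodide and Hoechst staining imaged by fluorescence microscopy; % cell death = PI-stained/Hoechst-stained cells × 100.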

[3] = Homo sapiens, PANC-1, without camptothecin, read-out: Panc1 − Cpt IC50
[4] = with 3 uM Camptothecin, read-out: Panc1 + Cpt IC50

Chain of Bcl-2 (P10415 whole entry): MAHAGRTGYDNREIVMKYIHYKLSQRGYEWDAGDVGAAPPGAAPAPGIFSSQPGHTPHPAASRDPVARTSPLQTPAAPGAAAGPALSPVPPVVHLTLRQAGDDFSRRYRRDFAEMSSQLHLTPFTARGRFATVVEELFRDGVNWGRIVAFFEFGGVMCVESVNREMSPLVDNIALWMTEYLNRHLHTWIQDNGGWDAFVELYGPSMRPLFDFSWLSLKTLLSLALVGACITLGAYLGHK
Chain of Bcl-xL (Q07817 whole entry): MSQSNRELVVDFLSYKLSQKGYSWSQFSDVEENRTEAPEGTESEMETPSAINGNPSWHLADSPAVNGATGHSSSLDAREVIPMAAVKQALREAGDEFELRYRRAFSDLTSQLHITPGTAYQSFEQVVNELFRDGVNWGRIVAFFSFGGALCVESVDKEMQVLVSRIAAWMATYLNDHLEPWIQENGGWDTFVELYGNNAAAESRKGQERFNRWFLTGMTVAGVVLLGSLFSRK

Row | Ki (Bcl-2) | Bcl-XL binding affinity Ki (Bcl-xL) | Structure (SMILES) | IC50 ([1]; Homo sapiens) | IC50 [2, 3] | IC50 [2, 4] | IC50 ([2]; without camptothecin, read-out: Panc1 − Cpt IC50) | IC50 [1]
1 | < 800 nM | ♯ | C[C@@H]1[C@@H](NC(=O)[C@@H]2C([C@H](C)O)[C@H](CO)ON2Cc2cccc(CN(CCN(C)C)Cc3ccccc3Cl)c2)C[C@H]2C[C@@H]1C2(C)C (stereo partly shown) [Compound 346] | 2000 to 5000 nM | > 2500 nM | > 2500 nM | – | –
2 | < 800 nM | ♯ | CC(O)C1C(CO)ON(Cc2cccc(CN(CCN(C)C)CC3CCCC3)c2)C1C(=O)NC1CC2CC(C1C)C2(C)C (stereo not shown) [Compound 363] | > 5000 nM | > 2500 nM | > 2500 nM | – | –
3 | < 800 nM | ♯ | COc1c(CN2O[C@@H](CO)[C@@H]([C@H](C)O)[C@H]2C(=O)N[C@H]2C[C@H]3C[C@@H]([C@@H]2C)C3(C)C)cccc1-c1cccc(C(=O)N[C@H](CN(C)C)C2CCCCC2)c1 [Compound 480] | 2000 to 5000 nM | > 2500 nM | 1300 to 1800 nM | – | –
4 | < 800 nM | ♯ | CC(O)C1C(CO)ON(Cc2cccc(CN(CCN(C)C)Cc3cccc(-c4ccccc4)c3)c2)C1C(=O)NC1CC2CC(C1C)C2(C)C (stereo not shown) [Compound 402] | < 2000 nM | > 2500 nM | > 2500 nM | – | –
5 | < 800 nM | ♯ | Cc1cccc(CN(CCN(C)C)Cc2cccc(CN3OC(CO)C(C(C)O)C3C(=O)NC3CC4CC(C3C)C4(C)C)c2)c1 (stereo not shown) [Compound 399] | 2000 to 5000 nM | > 2500 nM | > 2500 nM | – | –
6 | < 800 nM | ♯ | CC(C)CC(CN(C)C)N(Cc1ccccc1)Cc1cccc(CN2OC(CO)C(C(C)O)C2C(=O)NC2CC3CC(C2C)C3(C)C)c1 (stereo not shown) [Compound 435] | 2000 to 5000 nM | – | > 2500 nM | > 2500 nM | –
7 | < 800 nM | ♯ | COc1c(CN2O[C@@H](CO)[C@@H]([C@H](C)O)[C@H]2C(=O)N[C@H]2C[C@H]3C[C@@H]([C@@H]2C)C3(C)C)cccc1-c1cccc(C(=O)N[C@H](CN(C)C)C(C)C)c1 [Compound 488] | 2000 to 5000 nM | > 2500 nM | > 2500 nM | – | –
8 | < 800 nM | ♯ | CC(O)C1C(CO)ON(Cc2cccc(C(=O)NC(CCc3ccccc3)CN(C)C)c2)C1C(=O)NC1CC2CC(C1C)C2(C)C (stereo not shown) [Compound 498] | > 5000 nM | > 2500 nM | > 2500 nM | – | –
9 | < 800 nM | ♯ | CC(O)C1C(CO)ON(Cc2cccc(CN3Cc4ccccc4C3CN(C)C)c2)C1C(=O)NC1CC2CC(C1C)C2(C)C (stereo not shown) [Compound 470] | > 5000 nM | > 2500 nM | > 2500 nM | – | –
10 | < 800 nM | ♯ | CC(C)CC(CN(C)C)N(Cc1cccc(CN2OC(CO)C(C(C)O)C2C(=O)NC2CC3CC(C2C)C3(C)C)c1)Cc1ccccc1Cl (stereo not shown) [Compound 313] | < 2000 nM | 1300 to 1800 nM | 1300 to 1800 nM | – | –
11 | < 800 nM | ♯ | CC(O)C1C(CO)ON(Cc2cccc(CN(CCN(C)C)Cc3ccoc3)c2)C1C(=O)NC1CC2CC(C1C)C2(C)C (stereo not shown) [Compound 392] | > 5000 nM | > 2500 nM | > 2500 nM | – | –
12 | < 800 nM | ♯ | CC(O)C1C(CO)ON(Cc2cccc(CN(CCN(C)C)Cc3ccccc3I)c2)C1C(=O)NC1CC2CC(C1C)C2(C)C (stereo not shown) [Compound 394] | < 2000 nM | > 2500 nM | > 2500 nM | – | –
13 | < 800 nM | ♯ | CC(O)C1C(CO)ON(Cc2cccc(CN(CC(=O)N(C)C)Cc3ccccc3)c2)C1C(=O)NC1CC2CC(C1C)C2(C)C (stereo not shown) [Compound 471] | > 5000 nM | > 2500 nM | > 2500 nM | – | –
14 | < 800 nM | ♯ | CCN1CCC[C@H]1CN(Cc1ccccc1)Cc1cccc(CN2O[C@@H](CO)C([C@H](C)O)[C@H]2C(=O)N[C@H]2C[C@H]3C[C@@H]([C@@H]2C)C3(C)C)c1 (stereo partly shown) [Compound 424] | < 2000 nM | > 2500 nM | 1800 to 2500 nM | – | –
15 | < 800 nM | ♯ | CC(O)C1C(CO)ON(Cc2cccc(CN(CCN(C)C)CC3CCOC3)c2)C1C(=O)NC1CC2CC(C1C)C2(C)C (stereo not shown) [Compound 391] | > 5000 nM | > 2500 nM | > 2500 nM | – | –
16 | < 800 nM | ♯ | CC(O)C1C(CO)ON(Cc2cccc(CN(Cc3ccccc3)C(CN(C)C)CC(C)(C)C)c2)C1C(=O)NC1CC2CC(C1C)C2(C)C (stereo not shown) [Compound 414] | 2000 to 5000 nM | > 2500 nM | 1800 to 2500 nM | – | –

Row | Ki (Bcl-2) | Bcl-XL binding affinity Ki (Bcl-xL) | Structure (SMILES) | IC50 ([1]; Homo sapiens) | IC50 [2, 3] | IC50 [2, 4] | IC50 ([2]; without camptothecin, read-out: Panc1 − Cpt IC50) | IC50 [1]
17 | < 800 nM | ♯ | COc1c(CN2O[C@@H](CO)[C@@H]([C@H](C)O)[C@H]2C(=O)N[C@H]2C[C@H]3C[C@@H]([C@@H]2C)C3(C)C)cccc1-c1cccc(C(=O)N[C@@H](CC2CCCCC2)CN(C)C)c1 [Compound 487] | 2000 to 5000 nM | > 2500 nM | > 2500 nM | – | –
18 | < 800 nM | ♯ | CC(C)CC(CN(C)C)N(Cc1cccc(CN2OC(CO)C(C(C)O)C2C(=O)NC2CC3CC(C2C)C3(C)C)c1)Cc1ccccc1C#N (stereo not shown) [Compound 314] | < 2000 nM | > 2500 nM | > 2500 nM | – | –
19 | < 800 nM | ♯ | COc1c(CN2O[C@@H](CO)[C@@H]([C@H](C)O)[C@H]2C(=O)N[C@H]2C[C@H]3C[C@@H]([C@@H]2C)C3(C)C)cccc1-c1cccc(C(=O)N[C@H](Cc2ccccc2)CN(C)C)c1 [Compound 486] | 2000 to 5000 nM | > 2500 nM | > 2500 nM | – | –
20 | < 800 nM | ♯ | COc1ccccc1CN(Cc1cccc(CN2OC(CO)C(C(C)O)C2C(=O)NC2CC3CC(C2C)C3(C)C)c1)C(CC(C)C)CN(C)C (stereo not shown) [Compound 301] | < 2000 nM | > 2500 nM | > 2500 nM | – | –
21 | < 800 nM | ♯ | COc1c(CN2O[C@@H](CO)[C@@H]([C@H](C)O)[C@H]2C(=O)N[C@H]2C[C@H]3C[C@@H]([C@@H]2C)C3(C)C)cccc1-c1cccc(C(=O)N[C@H](CC(C)C)CN2CCCCCC2)c1 [Compound 483] | 2000 to 5000 nM | > 2500 nM | 1800 to 2500 nM | – | –
22 | < 800 nM | ♯ | CC(O)C1C(CO)ON(Cc2cccc(CN(CCN3CCCC3)CC3CCCCC3)c2)C1C(=O)NC1CC2CC(C1C)C2(C)C (stereo not shown) [Compound 425] | < 2000 nM | > 2500 nM | > 2500 nM | – | –
23 | < 800 nM | ♯ | CC(C)CC(CN(C)C)N(Cc1cccc(CN2OC(CO)C(C(C)O)C2C(=O)NC2CC3CC(C2C)C3(C)C)c1)Cc1ccccc1F (stereo not shown) [Compound 312] | < 2000 nM | > 2500 nM | > 2500 nM | – | –
24 | < 800 nM | ♯ | CC(O)C1C(CO)ON(Cc2cccc(CN(CCN(C)C)Cc3ccccc3Br)c2)C1C(=O)NC1CC2CC(C1C)C2(C)C (stereo not shown) [Compound 348] | > 5000 nM | > 2500 nM | > 2500 nM | – | –
25 | < 800 nM | ♯ | CC(O)C1C(CO)ON(Cc2cccc(CNC(CC3CCCCC3)CN(C)C)c2)C1C(=O)NC1CC2CC(C1C)C2(C)C (stereo not shown) [Compound 444] | 2000 to 5000 nM | > 2500 nM | > 2500 nM | – | –
26 | < 800 nM | ♯ | COc1c(CN2O[C@@H](CO)[C@@H]([C@H](C)O)[C@H]2C(=O)N[C@H]2C[C@H]3C[C@@H]([C@@H]2C)C3(C)C)cccc1-c1cccc(C(=O)N[C@@H](CN(C)C)C(C)C)c1 [Compound 484] | 2000 to 5000 nM | > 2500 nM | > 2500 nM | – | –
27 | < 800 nM | ♯ | CC(C)CC(CN(C)C)N(Cc1ccccc1)Cc1cccc(CN2OC(CO)C(C(C)O)C2C(=O)NC2CC3CC(C2C)C3(C)C)c1 (stereo not shown) [Compound 311] | – | > 2500 nM | 1800 to 2500 nM | – | 2000 to 5000 nM
28 | < 800 nM | ♯ | CCN(CC)CCN(Cc1ccccc1)Cc1cccc(CN2OC(CO)C(C(C)O)C2C(=O)NC2CC3CC(C2C)C3(C)C)c1 (stereo not shown) [Compound 428] | > 5000 nM | > 2500 nM | > 2500 nM | – | –
29 | < 800 nM | ♯ | CC(C)C(CN(C)C)N(Cc1ccccc1)Cc1cccc(CN2OC(CO)C(C(C)O)C2C(=O)NC2CC3CC(C2C)C3(C)C)c1 (stereo not shown) [Compound 415] | 2000 to 5000 nM | > 2500 nM | > 2500 nM | – | –
30 | < 800 nM | ♯ | CC(O)C1C(CO)ON(Cc2cccc(CN(CCN(C)C)CC3CC3)c2)C1C(=O)NC1CC2CC(C1C)C2(C)C (stereo not shown) [Compound 390] | > 5000 nM | > 2500 nM | > 2500 nM | – | –
31 | < 800 nM | ♯ | CC(C)CC(CN(C)C)N(Cc1cccc(CN2OC(CO)C(C(C)O)C2C(=O)NC2CC3CC(C2C)C3(C)C)c1)Cc1ccccc1[N+](=O)[O-] (stereo not shown) [Compound 316] | > 5000 nM | > 2500 nM | > 2500 nM | – | –
32 | < 800 nM | ♯ | CC(C)CC(CN(C)C)N(Cc1cccc(CN2OC(CO)C(C(C)O)C2C(=O)NC2CC3CC(C2C)C3(C)C)c1)Cc1ccccc1OC(F)(F)F (stereo not shown) [Compound 320] | < 2000 nM | > 2500 nM | 1800 to 2500 nM | – | –
